Measurements taken from ChEMBL document CHEMBL1139566, “Discovery of AICAR Tfase inhibitors that disrupt requisite enzyme dimerization” (Bioorg Med Chem Lett, 2005).
The source made the active and inactive calls. The calls are words filed in the database; no cut-off is given here. Peptide text beside a SMILES is read from it. * marks the point of attachment. NHPhenethyl = c1ccc(CCN*)cc1; Bz = O=C(c1ccccc1)*

Assays:
[1] = molecular target: T1, Bifunctional purine biosynthesis protein ATIC (Homo sapiens, UniProt P31939); assay: Average inhibition of AICAR formyltransferase at 25 uM and 50 uM concentration relative to cappsin 2; Inactive
Target sequence in this assay (P31939 whole entry, looked up): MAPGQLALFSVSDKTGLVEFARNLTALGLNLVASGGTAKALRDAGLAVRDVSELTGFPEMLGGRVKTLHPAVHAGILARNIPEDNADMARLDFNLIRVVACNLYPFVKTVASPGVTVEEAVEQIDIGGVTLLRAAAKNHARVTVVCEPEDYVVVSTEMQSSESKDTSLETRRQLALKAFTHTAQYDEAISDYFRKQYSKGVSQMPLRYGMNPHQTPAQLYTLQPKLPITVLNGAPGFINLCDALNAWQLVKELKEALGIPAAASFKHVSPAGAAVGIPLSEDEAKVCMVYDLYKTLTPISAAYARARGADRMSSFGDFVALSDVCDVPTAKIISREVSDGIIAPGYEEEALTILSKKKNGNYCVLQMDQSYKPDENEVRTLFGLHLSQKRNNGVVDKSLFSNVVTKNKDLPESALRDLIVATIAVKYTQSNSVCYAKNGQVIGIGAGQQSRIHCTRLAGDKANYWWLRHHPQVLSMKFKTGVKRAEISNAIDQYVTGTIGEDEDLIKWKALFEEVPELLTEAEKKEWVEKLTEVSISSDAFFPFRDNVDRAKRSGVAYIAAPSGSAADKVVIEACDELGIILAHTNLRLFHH

[2] = molecular target: T1, Bifunctional purine biosynthesis protein ATIC; assay: Inhibition constant against AICAR formyltransferase
Target sequence in this assay (P31939 whole entry): as the sequence (P31939 whole entry, looked up) above

SMILES	inhibition [1]	Ki [2] [µM]
CCCNC(=O)CNC(=O)CNC(=O)c1cccc(I)c1	inactive	
CN(CC(=O)NCCc1ccccc1)C(=O)CNC(=O)c1cccc(I)c1	inactive	
O=C(CNC(=O)c1cccc(I)c1)NCC(=O)OCCc1ccccc1	inactive	
COC(=O)CN(CC(=O)NCCc1ccccc1)C(=O)CNC(=O)c1cccc(I)c1	inactive	
COc1ccc(CNC(=O)CN(CC(=O)NCCc2ccccc2)C(=O)CNC(=O)c2cccc(I)c2)cc1		3.1
CNC(=O)CNC(=O)CNC(=O)c1cccc(I)c1	inactive	

The remaining lines, values ahead:

inhibition [1]	Ki [2] [µM]	SMILES
inactive		O=C(CNC(=O)CNC(=O)c1cccc([N+](=O)[O-])c1)NCCc1ccccc1
inactive		COc1cccc(C(=O)NCC(=O)NCC(=O)NCCc2ccccc2)c1
inactive		O=C(CNC(=O)CNC(=O)c1ccccc1)NCCc1ccccc1 (Bz-Gly-Gly-NHPhenethyl)
	8	O=C(CNC(=O)CNC(=O)c1cccc(I)c1)NCCc1ccccc1
inactive		O=C(CNC(=O)CNC(=O)c1ccccc1I)NCCc1ccccc1
inactive		Cc1cccc(C(=O)NCC(=O)NCC(=O)NCCc2ccccc2)c1
